Where a SMILES comes first, the peptide text is derived from it. Bridges are numbered along the chain shown (N, C = ends).
Biological target: T1, human NPR-A (Homo sapiens, UniProt P16066)
T1 construct: expressed in transfected cells; host or cells: HEK 293 cells, transient, Lipofectamine 2000
T1 sequence (P16066 33-1061): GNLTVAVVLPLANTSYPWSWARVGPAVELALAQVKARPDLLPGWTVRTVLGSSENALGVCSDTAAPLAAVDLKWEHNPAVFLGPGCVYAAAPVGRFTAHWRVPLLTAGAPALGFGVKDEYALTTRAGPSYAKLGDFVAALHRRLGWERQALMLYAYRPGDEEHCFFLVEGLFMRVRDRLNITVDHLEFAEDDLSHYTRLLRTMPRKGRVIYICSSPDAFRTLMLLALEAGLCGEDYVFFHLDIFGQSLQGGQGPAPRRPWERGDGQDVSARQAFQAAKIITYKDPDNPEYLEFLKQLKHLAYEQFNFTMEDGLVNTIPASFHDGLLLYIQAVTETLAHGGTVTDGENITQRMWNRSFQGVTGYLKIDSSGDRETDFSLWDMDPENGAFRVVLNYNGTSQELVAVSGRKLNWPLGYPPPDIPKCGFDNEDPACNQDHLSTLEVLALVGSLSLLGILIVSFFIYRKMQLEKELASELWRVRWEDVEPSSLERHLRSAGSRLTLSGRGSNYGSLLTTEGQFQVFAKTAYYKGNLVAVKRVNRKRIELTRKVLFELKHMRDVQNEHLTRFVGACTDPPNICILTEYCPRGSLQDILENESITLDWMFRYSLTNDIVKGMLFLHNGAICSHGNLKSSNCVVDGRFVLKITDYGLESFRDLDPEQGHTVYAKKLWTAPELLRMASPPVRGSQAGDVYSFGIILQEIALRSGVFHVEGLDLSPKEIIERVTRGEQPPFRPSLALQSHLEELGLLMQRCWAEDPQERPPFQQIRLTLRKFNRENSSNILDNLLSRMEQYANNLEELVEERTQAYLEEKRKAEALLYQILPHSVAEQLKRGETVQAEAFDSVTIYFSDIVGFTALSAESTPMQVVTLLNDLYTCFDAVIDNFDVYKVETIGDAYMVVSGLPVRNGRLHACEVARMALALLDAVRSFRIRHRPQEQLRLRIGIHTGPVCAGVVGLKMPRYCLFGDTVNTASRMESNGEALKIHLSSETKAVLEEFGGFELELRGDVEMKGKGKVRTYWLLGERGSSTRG
Assay: cGMP ALPHAscreen, cGMP production in HEK 293 cells transiently overexpressing hNPR-A
Type: cell-based
Settings: HEK 293 cells overexpressing hNPR-A
Experimental: Cells were cultured at 5% CO2 and 37 °C. HEK 293 cells were cultured in high glucose DMEM (Gibco, Carlsbad, CA, USA) supplemented with 10% FBS, and 1% penicillin/streptomycin. HEK 293 cells were seeded in media lacking penicillin/streptomycin 24 to 48 h pre-transfection. PC12 cells were cultured in high glucose DMEM (Gibco) supplemented with 10% FBS and 1% penicillin/streptomycin.
HEK 293 cells were transfected using the lipofectamine 2000 transfection protocol (Invitrogen). Cells (95% confluence) were transfected with 45% pcDNA3.1/hNPR-A, 45% pcDNA3.1, and 10% pEGFP-NI to the optimal DNA concentration specified in the protocol. The co-transfection with pEGFP-NI plasmid allowed the determination of the transfection efficiency. This was assessed by the estimation of the number of GFP-expressing cells using an Olympus IX70 inverted fluorescence microscope. Transfected cells were used for assay purposes within 24 h.
The cGMP ALPHAscreen was performed using the ALPHAscreen Protein A detection kit and the biotinylated cGMP supplement (Perkin Elmer, Waltham, MA, USA) with rabbit anti-cGMP polyclonal antibody (Biovision, Mountain View, CA, USA). Cells were detached from the flask and the resulting pellet was resuspended in stimulation buffer (HBSS supplemented with 0.1% w/v BSA and 1 mM IBMX at 37 °C). Cells were added to a white 384-well Optiplate (Perkin Elmer, Waltham, USA) to 30,000 cells per well for HEK 293 cells and 10,000 cells per well for PC12 cells. Cells were incubated with different concentrations of test peptides (concentration range of 1 × 10^−5 to 1 × 10^−11 M in stimulation buffer) at 37 °C for 30 min. Cells were lysed with lysis buffer (1 M HEPES, 0.3% Tween-20, 1% BSA in H2O, pH 7.4). Then 5 μL acceptor-bead mix was added to each well under subdued lighting conditions, followed by 5 μL of donor-bead mix. Plates were incubated for ~12 h, slowly shaking at room temperature. After incubation, the ALPHAscreen signal was measured using an EnVision plate reader (Perkin Elmer). The standard curve consisted of cGMP in a concentration range of 1 × 10^−6 to 1 × 10^−12 M. All data points were acquired in triplicate and were analyzed using GraphPad Prism 5.0 software (GraphPad Software, Inc., San Diego, CA, USA).

CC[C@H](C)[C@H](NC(=O)[C@H](CCCCN)NC(=O)[C@H](CO)NC(=O)[C@H](CC(=O)O)NC(=O)[C@@H](N)CO)C(=O)NCC(=O)N[C@@H](CC(N)=O)C(=O)NCC(=O)N[C@H]1CSSC[C@@H](C(=O)N[C@@H](CC(N)=O)C(=O)N[C@@H](CCCNC(=N)N)C(=O)N[C@H](C(=O)N[C@@H](CCSC)C(=O)N[C@@H](CCC(N)=O)C(=O)N[C@@H](CC(N)=O)C(=O)N2CCC[C@H]2C(=O)N2CCC[C@H]2C(=O)N[C@@H](CCCCN)C(=O)N[C@@H](CCCCN)C(=O)N[C@@H](Cc2ccccc2)C(=O)N[C@@H](CO)C(=O)NCC(=O)N[C@@H](CCC(=O)O)C(=O)O)[C@@H](C)CC)NC(=O)CNC(=O)[C@H](CC(C)C)NC(=O)CNC(=O)[C@H](CO)NC(=O)[C@H](C(C)C)NC(=O)[C@H](CO)NC(=O)CNC(=O)[C@H]([C@@H](C)CC)NC(=O)[C@H](CCCNC(=N)N)NC(=O)[C@H](CC(=O)O)NC(=O)[C@H](CC(C)C)NC(=O)[C@@H]2CCCN2C(=O)[C@H](Cc2ccccc2)NC(=O)CNC(=O)[C@H](Cc2ccccc2)NC1=O [TNPc] (H-SDSKIGNGCFGFPLDRIGSVSGLGCNRIMQNPPKKFSGE-OH; disulfide 9-25)
Emax at 10 µM (HEK293, read-out: cGMP production, % of the maximum response (compared with DNP, hANP, hBNP), at 10 μM): ~30%
EC50 (30 min at 37 °C, cGMP ALPHAscreen, three separate experiments in triplicate, read-out: hNPR-A EC50 (95% CI), potency to stimulate cGMP production): > 10 µM
